From patent US20100239639A1, “MEDICATED PATCH” (HISAMITSU PHARMACEUTICAL CO., INC., priority 2007, published 2010)

Test: Solubility test of BM-DBM
Format: physicochemical
Details: 1 g BM-DBM mixed with 2 g additive, dissolved at 140° C., cooled to room temperature for 30 min
Description: 1 g of BM-DBM was mixed with 2 g of an additive, dissolved at 140° C., then the mixture was cooled to room temperature for 30 min and its state was observed.

Solubility of BM-DBM: ◯
solubility of BM-DBM (in words): particularly good solubility of BM-DBM
SMILES: CCCCCCCCCCCC(=O)OCCCCCC [Hexyl laurate]
